{"source": "patent US6355799B1", "about": "“Substituted benzene compounds, process for their preparation, and herbicidal and defoliant compositions containing them” (ISK Americas Incorporated, priority 1997, dated 2002)", "type_in_all_cases": "in vivo", "key": {"[1]": {"tested_on": "large crabgrass (Digitaria sanguinalis, DIGSA)", "test": "Post-emerge test, greenhouse herbicide activity screening", "settings": "post-emerge, 14 days after application, rating scale 0-100", "summary_of_the_method": "(§1)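 Applied at 15–1000 g ai/ha from acetone in 187 l/ha spray volume. Post-emergence applications included 0.25% v/v non-ionic surfactant and reached plants sown 8–21 days before. Pre-emergence applications were incorporated by surface watering. Efficacy or crop damage was rated on a 0–100 scale after 14 days.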"}, "[2]": {"tested_on": "velvetleaf (Abutilon theophrasti, ABUTH)", "test": "Post-emerge test, greenhouse herbicide activity screening", "settings": "post-emerge, 14 days after application, rating scale 0-100", "summary_of_the_method": "as §1"}, "[3]": {"tested_on": "lambsquarters (Chenopodium album, CHEAL)", "test": "Post-emerge test, greenhouse herbicide activity screening", "settings": "post-emerge, 14 days after application, rating scale 0-100", "summary_of_the_method": "as §1"}, "[4]": {"tested_on": "ivyleaf morningglory (Ipomoea hederacea, IPOHE)", "test": "Post-emerge test, greenhouse herbicide activity screening", "settings": "post-emerge, 14 days after application, rating scale 0-100", "summary_of_the_method": "as §1"}, "[5]": {"tested_on": "common ragweed (Ambrosia artemisizfolia L., AMBEL)", "test": "Post-emerge test, greenhouse herbicide activity screening", "settings": "post-emerge, 14 days after application, rating scale 0-100", "summary_of_the_method": "as §1"}, "[6]": {"tested_on": "sicklepod (Cassia obtusifolia, CASOB)", "test": "Post-emerge test, greenhouse herbicide activity screening", "settings": "post-emerge, 14 days after application, rating scale 0-100", "summary_of_the_method": "as §1"}, "[7]": {"tested_on": "green foxtail (Setaria viridis, SETVI)", "test": "Post-emerge test, greenhouse herbicide activity screening", "settings": "post-emerge, 14 days after application, rating scale 0-100", "summary_of_the_method": "as §1"}, "[8]": {"tested_on": "redroot pigweed (Amaranthus retroflexus, AMARE)", "test": "Post-emerge test, greenhouse herbicide activity screening", "settings": "post-emerge, 14 days after application, rating scale 0-100", "summary_of_the_method": "as §1"}, "[9]": {"tested_on": "johnsongrass (Sorghum halepense, SORHA)", "test": "Post-emerge test, greenhouse herbicide activity screening", "settings": "post-emerge, 14 days after application, rating scale 0-100", "summary_of_the_method": "as §1"}, "[10]": {"tested_on": "barnyardgrass (Echinochloa crus-galli, ECHCG)", "test": "Post-emerge test, greenhouse herbicide activity screening", "settings": "post-emerge, 14 days after application, rating scale 0-100", "summary_of_the_method": "as §1"}, "[11]": {"tested_on": "field corn (Zea mays L., var. Dekalb 535, CORN)", "test": "Post-emerge test, crop safety", "settings": "post-emerge, 14 days after application, rating scale 0-100", "summary_of_the_method": "(§2)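 Fourteen days after spraying, crop and weed injury was graded visually from 0, no effect, to 100, every plant dead. Test substances were dissolved in acetone and applied at 15–1000 g ai/ha with a flat-fan nozzle. Application was either pre-emergence, one day after sowing, or post-emergence at the 2–3 leaf stage.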"}, "[12]": {"tested_on": "upland rice (Oryza sp., var. Tebonnet, RICE)", "test": "Post-emerge test, crop safety", "settings": "post-emerge, 14 days after application, rating scale 0-100", "summary_of_the_method": "as §2"}, "[13]": {"tested_on": "redroot pigweed (Amaranthus retroflexus, AMARE)", "test": "Pre-emerge test, greenhouse herbicide activity screening", "settings": "rated 14 days after application, 0 = no damage, 100 = complete death", "summary_of_the_method": "(§3)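 Rating: 0–100 visual injury, 14 DAA. Application: acetone, 187 l/ha, 15–1000 g ai/ha, flat-fan track sprayer with nozzle 40–45 cm above soil or canopy. Post-emerge runs used 0.25% v/v surfactant on 2–3 leaf plants.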"}, "[14]": {"tested_on": "field corn (Zea mays L., var. Dekalb 535, CORN)", "test": "Pre-emerge test, crop safety", "settings": "rated 14 days after application, 0 = no damage, 100 = complete death", "summary_of_the_method": "as §3"}, "[15]": {"tested_on": "upland rice (Oryza sp., var. Tebonnet, RICE)", "test": "Pre-emerge test, crop safety", "settings": "rated 14 days after application, 0 = no damage, 100 = complete death", "summary_of_the_method": "as §3"}, "[16]": {"tested_on": "large crabgrass (Digitaria sanguinalis, DIGSA)", "test": "Pre-emerge test, greenhouse herbicide activity screening", "settings": "rated 14 days after application, 0 = no damage, 100 = complete death", "summary_of_the_method": "as §2"}, "[17]": {"tested_on": "velvetleaf (Abutilon theophrasti, ABUTH)", "test": "Pre-emerge test, greenhouse herbicide activity screening", "settings": "rated 14 days after application, 0 = no damage, 100 = complete death", "summary_of_the_method": "as §2"}, "[18]": {"tested_on": "lambsquarters (Chenopodium album, CHEAL)", "test": "Pre-emerge test, greenhouse herbicide activity screening", "settings": "rated 14 days after application, 0 = no damage, 100 = complete death", "summary_of_the_method": "as §2"}, "[19]": {"tested_on": "ivyleaf morningglory (Ipomoea hederacea, IPOHE)", "test": "Pre-emerge test, greenhouse herbicide activity screening", "settings": "rated 14 days after application, 0 = no damage, 100 = complete death", "summary_of_the_method": "as §2"}, "[20]": {"tested_on": "sicklepod (Cassia obtusifolia, CASOB)", "test": "Pre-emerge test, greenhouse herbicide activity screening", "settings": "rated 14 days after application, 0 = no damage, 100 = complete death", "summary_of_the_method": "as §2"}, "[21]": {"tested_on": "green foxtail (Setaria viridis, SETVI)", "test": "Pre-emerge test, greenhouse herbicide activity screening", "settings": "rated 14 days after application, 0 = no damage, 100 = complete death", "summary_of_the_method": "as §2"}, "[22]": {"tested_on": "johnsongrass (Sorghum halepense, SORHA)", "test": "Pre-emerge test, greenhouse herbicide activity screening", "settings": "rated 14 days after application, 0 = no damage, 100 = complete death", "summary_of_the_method": "as §2"}, "[23]": {"tested_on": "barnyardgrass (Echinochloa crus-galli, ECHCG)", "test": "Pre-emerge test, greenhouse herbicide activity screening", "settings": "rated 14 days after application, 0 = no damage, 100 = complete death", "summary_of_the_method": "as §2"}}, "data": [{"smiles": "COc1c(Cl)cc(F)c(-n2c(=O)cc(C(F)(F)F)n(C)c2=O)c1NC(=O)c1ccc(C(F)(F)F)cc1", "note": "[2-33]", "values": [{"measurement": "phytotoxicity rating DIGSA", "setting": "[1]; 63 g ai/ha", "result": 0}, {"measurement": "phytotoxicity rating DIGSA", "setting": "[1]; 250 g ai/ha", "result": 40}, {"measurement": "phytotoxicity rating ABUTH", "setting": "[2]; 63 g ai/ha", "result": 100}, {"measurement": "phytotoxicity rating ABUTH", "setting": "[2]; 250 g ai/ha", "result": 100}, {"measurement": "phytotoxicity rating CHEAL", "setting": "[3]; 63 g ai/ha", "result": 80}, {"measurement": "phytotoxicity rating CHEAL", "setting": "[3]; 250 g ai/ha", "result": 95}, {"measurement": "phytotoxicity rating IPOHE", "setting": "[4]; 63 g ai/ha", "result": 100}, {"measurement": "phytotoxicity rating IPOHE", "setting": "[4]; 250 g ai/ha", "result": 100}, {"measurement": "phytotoxicity rating AMBEL", "setting": "[5]; 63 g ai/ha", "result": 70}, {"measurement": "phytotoxicity rating AMBEL", "setting": "[5]; 250 g ai/ha", "result": 95}, {"measurement": "phytotoxicity rating CASOB", "setting": "[6]; 63 g ai/ha", "result": 70}, {"measurement": "phytotoxicity rating CASOB", "setting": "[6]; 250 g ai/ha", "result": 80}, {"measurement": "phytotoxicity rating SETVI", "setting": "[7]; 63 g ai/ha", "result": 50}, {"measurement": "phytotoxicity rating SETVI", "setting": "[7]; 250 g ai/ha", "result": 40}, {"measurement": "phytotoxicity rating AMARE", "setting": "[8]; 63 g ai/ha", "result": 90}, {"measurement": "phytotoxicity rating AMARE", "setting": "[8]; 250 g ai/ha", "result": 95}, {"measurement": "phytotoxicity rating SORHA", "setting": "[9]; 63 g ai/ha", "result": 0}, {"measurement": "phytotoxicity rating SORHA", "setting": "[9]; 250 g ai/ha", "result": 20}, {"measurement": "phytotoxicity rating ECHCG", "setting": "[10]; 63 g ai/ha", "result": 10}, {"measurement": "phytotoxicity rating ECHCG", "setting": "[10]; 250 g ai/ha", "result": 60}, {"measurement": "phytotoxicity rating CORN", "setting": "[11]; 63 g ai/ha", "result": 10}, {"measurement": "phytotoxicity rating CORN", "setting": "[11]; 250 g ai/ha", "result": 40}, {"measurement": "phytotoxicity rating RICE", "setting": "[12]; 63 g ai/ha", "result": 20}, {"measurement": "phytotoxicity rating RICE", "setting": "[12]; 250 g ai/ha", "result": 60}, {"measurement": "Pre-emerge Herbicidal Activity, phytotoxicity rating (0-100), AMARE", "setting": "[13]; 63 g ai/ha", "result": 100}, {"measurement": "Pre-emerge Herbicidal Activity, phytotoxicity rating (0-100), AMARE", "setting": "[13]; 250 g ai/ha", "result": 100}, {"measurement": "Pre-emerge phytotoxicity rating (0-100), crop damage, CORN", "setting": "[14]; 63 g ai/ha", "result": 70}, {"measurement": "Pre-emerge phytotoxicity rating (0-100), crop damage, CORN", "setting": "[14]; 250 g ai/ha", "result": 90}, {"measurement": "Pre-emerge phytotoxicity rating (0-100), crop damage, RICE", "setting": "[15]; 63 g ai/ha", "result": 70}, {"measurement": "Pre-emerge phytotoxicity rating (0-100), crop damage, RICE", "setting": "[15]; 250 g ai/ha", "result": 80}, {"measurement": "Pre-emerge Herbicidal Activity, phytotoxicity rating (0-100), DIGSA", "setting": "[16]; 63 g ai/ha", "result": 100}, {"measurement": "Pre-emerge Herbicidal Activity, phytotoxicity rating (0-100), DIGSA", "setting": "[16]; 250 g ai/ha", "result": 100}, {"measurement": "Pre-emerge Herbicidal Activity, phytotoxicity rating (0-100), ABUTH", "setting": "[17]; 63 g ai/ha", "result": 100}, {"measurement": "Pre-emerge Herbicidal Activity, phytotoxicity rating (0-100), ABUTH", "setting": "[17]; 250 g ai/ha", "result": 100}, {"measurement": "Pre-emerge Herbicidal Activity, phytotoxicity rating (0-100), CHEAL", "setting": "[18]; 63 g ai/ha", "result": 100}, {"measurement": "Pre-emerge Herbicidal Activity, phytotoxicity rating (0-100), CHEAL", "setting": "[18]; 250 g ai/ha", "result": 100}, {"measurement": "Pre-emerge Herbicidal Activity, phytotoxicity rating (0-100), IPOHE", "setting": "[19]; 63 g ai/ha", "result": 100}, {"measurement": "Pre-emerge Herbicidal Activity, phytotoxicity rating (0-100), IPOHE", "setting": "[19]; 250 g ai/ha", "result": 100}, {"measurement": "Pre-emerge Herbicidal Activity, phytotoxicity rating (0-100), CASOB", "setting": "[20]; 63 g ai/ha", "result": 100}, {"measurement": "Pre-emerge Herbicidal Activity, phytotoxicity rating (0-100), CASOB", "setting": "[20]; 250 g ai/ha", "result": 100}, {"measurement": "Pre-emerge Herbicidal Activity, phytotoxicity rating (0-100), SETVI", "setting": "[21]; 63 g ai/ha", "result": 100}, {"measurement": "Pre-emerge Herbicidal Activity, phytotoxicity rating (0-100), SETVI", "setting": "[21]; 250 g ai/ha", "result": 100}, {"measurement": "Pre-emerge Herbicidal Activity, phytotoxicity rating (0-100), SORHA", "setting": "[22]; 63 g ai/ha", "result": 60}, {"measurement": "Pre-emerge Herbicidal Activity, phytotoxicity rating (0-100), SORHA", "setting": "[22]; 250 g ai/ha", "result": 90}, {"measurement": "Pre-emerge Herbicidal Activity, phytotoxicity rating (0-100), ECHCG", "setting": "[23]; 63 g ai/ha", "result": 30}, {"measurement": "Pre-emerge Herbicidal Activity, phytotoxicity rating (0-100), ECHCG", "setting": "[23]; 250 g ai/ha", "result": 95}]}]}
